Measured values taken from paper PMC1198236, “β-adrenergic receptor activation in immortalized human urothelial cells stimulates inflammatory responses by PKA-independent mechanisms” (Cell communication and signaling : CCS, 2005).

Biological target: β-adrenergic receptor (β-AR; subtype not determined)

CC(C)(C)NC[C@H](O)COc1cccc2[nH]c(C#N)c(I)c12 [125I-CYP, (-)3-[125I]iodocyanopindolol]
Kd: 0.0324 ± 0.0011 nM
